Laboratory results reported in US20240270758A1, “PYRIDINO-OR PYRIMIDO-CYCLIC COMPOUND, PREPARATION METHOD THEREFOR AND MEDICAL USE THEREOF” (Genfleet Therapeutics (Shanghai) Inc., priority 2021, published 2024).

Experiments:
[1] = target: KRAS^wt (wild type) protein binding to RBD region fragment of RAF1 protein (Homo sapiens (Human), UniProt P01116); assay: KRAS-RAF1 binding assay (HTRF), KRAS wild type; settings: GST-RAF1-RBD, GTP
Experimental: (§1) GST-RAF1-RBD was purchased from BPS Bioscience; Cat. NO.: 100519; KRAS^G12D was purchased from BPS Bioscience; Cat. NO.: 100623; KRAS^wt was purchased from Reactionbiology; GTP was purchased from Sigma; Cat. NO.: G8877; Mab Anti GST-XL665 was purchased from cisbio; Cat. NO.: 61GSTXLF; Eu-W1024-anti-6×HIS was purchased from PE; Cat. NO.: AD0111; ProxiPlate-384-Plates was purchased from PerkinElmer; Cat. NO.: 6008289; DMSO was purchased from VWR AMRESCO; Cat. NO.: 0231-500ML; microplate reader was purchased from PerkinElmer; Cat. NO.: Envison;
(§2) This experiment is intended to investigate the inhibitory effect of compounds on the binding of KRAS^G12D mutant protein or KRAS^Wt (wild type) protein to fragments of the RBD region fragment of RAF1 protein. A 500×3-fold gradient concentration stock of compound was prepared using DMSO and diluted 50-fold into a 10× stock of compound using reaction buffer. To the reaction wells of an ELISA plate (ProxiPlate-384-Plates), was first added 3 µL of His-KRAS^G12D protein or KRAS^wt protein, then added 1 μL of 200 µM GTP and incubated for 30 min, then added 2 μL of 10× compound or reaction buffer with 2% DMSO (positive control) and incubated for 30 min, then added 4 μL of GST-RAF1-RBD protein or reaction buffer (negative control) and incubated for 15 min, then added […] anti-His antibody and XL665-labeled anti-GST antibody mixed well in advance and incubated for 60 min before reading HTRF signal by microplate reader. The inhibition ratio of compounds on KRAS protein (G12D mutant or wild type) and RAF1 binding was calculated IR (%)=(positive control signal-compound well signal)/(positive control signal-negative control signal)×100% and IC50 values were calculated by fitting compound concentrations and corresponding inhibition ratios using the Prism 8 four-parameter method. […] While the inhibition IC50 values of the compounds on the binding of KRAS^wt (wild type) protein to the RBD region fragment of RAF1 protein was more than 40 nM or 100 nM, or more than 500 nM, or even more than 1 μM or 2 μM.

[2] = target: KRAS^G12D mutant protein binding to RBD region fragment of RAF1 protein (Homo sapiens (Human), UniProt P01116, G12D); assay: KRAS-RAF1 binding assay (HTRF), KRAS G12D; settings: His-KRAS^G12D, GST-RAF1-RBD, GTP
Experimental: as §1, §2

[3] = tested on: p-ERK in AGS cells (KRAS^G12D mutation); assay: Cell p-ERK detection assay; assay type: cell-based, human; settings: 3 h incubation, HTRF
Experimental: AGS was purchased from ATCC; Cat. NO.: CRL-1739; F12K was purchased from Gibco; Cat. NO.: 21127-022; FBS was purchased from Gibco; Cat. NO.: 10099-141C; Trypsin (containing EDTA) was purchased from Gibco; Cat. NO.: 25200-072; DMSO was purchased from VWRAMRESCO; Cat. NO.: 0231-500ML; 96-well cell culture plate was purchased from Corning; Cat. NO.: 3599; An white background opaque 96-well plate was purchased from Cisbio; Cat. NO.: 66PL96025; Advance ERK phospho-T202/Y204 kit was purchased from Cisbio; Cat. NO.: 64AERPEH; Cell Counters were purchased from CHEMOMETEC; Model NO.: NC-200; microplate reader was purchased from PerkinElmer; Model NO.: Envison.
AGS is an endogenous human gastric adenocarcinoma cell line containing KRAS^G12D mutation, cultured in F12K+10% FBS medium. On the first day of the experiment, cells in the logarithmic growth phase were taken, digested with trypsin (containing EDTA), collected, and counted, and approximately 20,000 cells/well were inoculated in 96-well cell culture plates and cultured overnight in a 5% CO2 incubator. A 1000×3.16-fold gradient concentration stock of the compound was prepared using DMSO, diluted 200-fold into a 5× compound stock using the medium described above, and a 5× compound stock was added to each cell culture well the day after cell inoculating at a final concentration of 1× and a DMSO content of 0.1%. DMSO was used as an experimental control. After the compound was added and the incubation was continued for 3 h, the medium in the culture wells was removed, […] of cell lysis solution (from Advance ERK phospho-T202/Y204 kit, the same below) was added to each well, mixed well and incubated for 30 min, then […] of the mixed solution was transferred to a white background opaque 96-well plate, and another well was taken as a blank well with adding […] of cell lysis solution. After the transfer, […] of p-ERK HTRF antibody mixed solution (from Advance ERK phospho-T202/Y204 kit) was added to each well, after incubation for 4 h, HTRF fluorescence value (RLU) was read by a microplate reader, and p-ERK level inhibition ratio of the compound was calculated IR (%)=(RLU control-RLU compound)/(RLU control-RLU blank)×100%, compound concentration and corresponding cell p-ERK level inhibition ratio were fitted using Prism 8 four-parameter method, and IC50 value was calculated.

[4] = tested on: AsPC-1 cells (KRAS^G12D mutation); assay: Cell proliferation inhibition assay (3D, CellTiter-Glo), AsPC-1; assay type: cell-based, human; settings: 3D cell model, 5 days
Description: (§3) AsPC-1 was purchased from ATCC; Cat. NO.: CRL-1682; AGS was purchased from ATCC; Cat. NO.: CRL-1739; RPMI1640 was purchased from Gibco; Cat. NO.: 11875-093 2235123; F12K was purchased from Gibco; Cat. NO.: 21127-022; FBS was purchased from Gibco; Cat. NO.: 10099-141C; Trypsin (containing EDTA) was purchased from Gibco; Cat. NO.: 25200-072; CellTiter Glo-3D was purchased from Progema; Cat. NO.: G9683; 384-well sphere plates were purchased from coming; Cat. NO.: 3830; White background opaque 384-well plates were purchased from coming; Cat. NO.: 3570; Cell Counters were purchased from CHEMOMETEC; Model NO.: NC-200; microplate reader was purchased from PerkinElmer; Model NO.: Envison;
(§4) AsPC-1 is an endogenous human pancreatic cancer cell containing KRAS^G12D mutation, which is cultured in RPMI-1640 medium containing 10% FBS; AGS human gastric cancer cell line containing KRAS^G12D mutation, cultured in F-12K medium containing 10% FBS. Cells in the logarithmic growth phase were taken, digested with trypsin (containing EDTA), harvested and counted, and inoculated with 800 AsPC-1 cells/well or 400 AGS cells/well, respectively, in 384-well sphere plates and cultured overnight at 5% C02 to establish a 3D cell model. A 3.16-fold gradient concentration stock solution of 1000× compound was prepared using DMSO, diluted 100-fold into a 10× compound stock solution using media, and a 10× compound stock solution was added to each cell culture well the day after cell inoculating at a final concentration of 1× with a DMSO content of 0.1%. DMSO was used as an experimental control (control) and culture medium as a blank control (blank). After the addition of compounds, the cells were cultured for 5 days. […] CellTiter-Glo working solution was added to each well, mixed well, and incubated for 30 min. After standing for 30 min at room temperature, 40 μl of the mixed solution was transferred to a white background opaque 384-well plate. Luminescence chemiluminescence value was read on a microplate reader, and the cell proliferation inhibition ratio was calculated, IR (%)=(RLU control-RLU compound)/(RLU control-RLU blank)×100%. XLFit four-parameter method was used to fit the gradient dilution concentration of compounds and the corresponding cell proliferation inhibition ratio, and the IC50 value was calculated. […] Results for exemplary of the example compounds are shown in Table 3 below. - indicates not detected.

[5] = tested on: AGS cells (KRAS^G12D mutation); assay: Cell proliferation inhibition assay (3D, CellTiter-Glo), AGS; assay type: cell-based, human; settings: 3D cell model, 5 days
Description: as §3, §4

Chain of KRAS^wt (wild type) protein binding to RBD region fragment of RAF1 protein (P01116-2 other isoform, or with tags, fused parts or gaps): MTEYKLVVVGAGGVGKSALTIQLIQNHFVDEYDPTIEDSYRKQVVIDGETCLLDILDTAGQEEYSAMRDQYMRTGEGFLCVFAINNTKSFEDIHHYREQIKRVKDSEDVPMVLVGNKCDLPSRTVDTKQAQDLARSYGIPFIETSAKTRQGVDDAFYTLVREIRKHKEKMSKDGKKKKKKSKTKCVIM
Chain of KRAS^G12D mutant protein binding to RBD region fragment of RAF1 protein (P01116-2 other isoform, or with tags, fused parts or gaps G12D): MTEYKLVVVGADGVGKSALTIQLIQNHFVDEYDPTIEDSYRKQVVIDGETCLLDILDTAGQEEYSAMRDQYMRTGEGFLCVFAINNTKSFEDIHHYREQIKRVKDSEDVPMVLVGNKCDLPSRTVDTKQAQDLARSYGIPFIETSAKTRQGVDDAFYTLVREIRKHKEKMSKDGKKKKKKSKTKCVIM

IC50 [1] [nM] | IC50 [2] [nM] | IC50 [4] [nM] | IC50 [5] [nM] | IC50 [3] [nM] | Structure (SMILES) | IC50 ([3]; Homo sapiens, AGS, 3 h) [nM] | IC50 ([4]; Homo sapiens, ASPC1, 120 h) [nM] | IC50 ([5]; Homo sapiens, AGS, 120 h) [nM]
788 | 186 | – | – | – | C#Cc1cccc2cc(O)cc(-c3ncc4c(N5CC6CCC(C5)C6N)nc(OCC56CCCN5CCC6)nc4c3F)c12 (stereo not shown) [Example Z2] | – | – | –
2610 | 256 | – | – | – | C#Cc1cccc2cc(O)cc(-c3ncc4c(N5CC6CCC(C5)C6N)nc(OCC56CCCN5CCC6)nc4c3F)c12 (stereo not shown) [Example Z1] | – | – | –
– | – | – | – | – | C#Cc1cccc2cc(O)cc(-c3ncc4c(N5C[C@H]6CC[C@@H](C5)N6)nc(OCC56CCC7(CC7)N5CC(=C)C6)nc4c3F)c12 (stereo partly drawn) [Example Z22, 4-(4-((1R,5S)-3,8-diazabicyclo[3.2.1]oct-3-yl)-8-fluoro-2-((6′-methylenetetrahydrospiro[cyclopropane-1,3′-pyrrolizin]-7a′(5′H)-yl)methoxy)pyrido[4,3-d]pyrimidin-7-yl)-5-ethynylnaphthalen-2-ol] | 2.41 | 75.4 | 10.8
– | – | – | – | – | C#Cc1cccc2cc(O)cc(-c3ncc4c(N5C[C@H]6CC[C@@H](C5)N6)nc(OCC56CCCN5CCC6=C)nc4c3F)c12 (stereo partly drawn) [Example Z25, 4-(4-((1R,5S)-3,8-diazabicyclo[3.2.1]octan-3-yl)-8-fluoro-2-((1-methylenetetrahydro-1H-pyrrolizin-7a(5H)-yl)methoxy)pyrido[4,3-d]pyrimidin-7-yl)-5-ethynylnaphthalen-2-ol] | 6.84 | 70.7 | 24.9
– | – | – | – | – | C#Cc1c(F)ccc2cc(O)cc(-c3ncc4c(N5C[C@H]6CC[C@@H](C5)N6)nc(OC[C@@]56CCCN5CC(=C)C6)nc4c3F)c12 [Example Z12, 4-(4-((1R,5S)-3,8-diazabicyclo[3.2.1]octan-3-yl)-8-fluoro-2-(((S)-2-methylenetetrahydro-1H-pyrrolizin-7a(5H)-yl)methoxy)pyrido[4,3-d]pyrimidin-7-yl)-5-ethynyl-6-fluoronaphthalen-2-ol] | 1.83 | 12.5 | 2.8
– | – | 71.9 | 4.8 | 5.47 | C#Cc1c(F)ccc2cc(O)cc(-c3ncc4c(N5C[C@H]6CC[C@@H](C5)N6)nc(OCC56CC(=C)CN5CC(=C)C6)nc4c3Cl)c12 [Example Z211, 4-(4-((1R,5S)-3,8-diazacyclo[3.2.1]octan-3-yl)-8-chloro-2-((2,6-dimethylenetetrahydro-1H-pyrrolizin-7a(5H)-yl)methoxy)pyrido[4,3-d]pyrimidin-7-yl)-5-ethynyl-6-fluoronaphthalen-2-ol] | – | – | –
– | – | – | – | – | C#Cc1cccc2cc(O)cc(-c3ncc4c(N5C[C@H]6CC[C@@H](C5)N6)nc(OCC56CCCN5CC(=C)C6)nc4c3F)c12 (stereo partly drawn) [Example Z8, 4-(4-((1R,5S)-3,8-diazabicyclo[3.2.1]octan-3-yl)-8-fluoro-2-((2-methylenetetrahydro-1H-pyrrolizin-7a(5H)-yl)methoxy)pyrido[4,3-d]pyrimidin-7-yl)-5-ethynylnaphthalen-2-ol] | 2.78 | 57.7 | 5.3
– | – | – | – | – | C#Cc1cccc2cc(O)cc(-c3ncc4c(N5C[C@@H]6CC[C@@H](N6)[C@H]5C)nc(OCC56CC(C)CN5CC(C)C6)nc4c3F)c12 (stereo partly drawn) [Example Z207, 4-(2-((2,6-dimethyltetrahydro-1H-pyrrolizin-7a(5H)-yl)methoxy)-8-fluoro-4-((1R, 2R, 5S)-2-methyl-3,8-diazabicyclo[3.2.1]octan-3-yl)pyrido[4,3-d]pyrimidin-7-yl)-5-ethynylnaphthalen-2-ol] | 13.4 | 91.1 | 32
– | – | – | – | – | C#Cc1cccc2cc(O)cc(-c3ncc4c(N5C[C@H]6CC[C@@H](C5)N6)nc(OCC56CC(=C)CN5CC5(CC5)C6)nc4c3F)c12 (stereo partly drawn) [Example Z23, 4-(4-((1R,5S)-3,8-diazabicyclo[3.2.1]octan-3-yl)-8-fluoro-2-((6′-methylenedihydro-1′H,3′H-spiro[cyclopropane-1,2′-pyrrolizin]-7a′(5′H)-yl)methoxy)pyrido[4,3-d]pyrimidin-7-yl)-5-ethynylnaphthalen-2-ol] | 0.76 | 33.2 | 4.7

Structure (SMILES) | IC50 [1] [nM] | IC50 [2] [nM] | IC50 [4] [nM] | IC50 [5] [nM] | IC50 [3] [nM] | IC50 ([3]; Homo sapiens, AGS, 3 h) [nM] | IC50 ([4]; Homo sapiens, ASPC1, 120 h) [nM] | IC50 ([5]; Homo sapiens, AGS, 120 h) [nM]
C#Cc1cccc2cc(O)cc(-c3ncc4c(N5C[C@@H]6N[C@H](C5)[C@@H]5C[C@@H]56)nc(OCC56CCCN5CCC6)nc4c3F)c12 [Example Z10, 5-ethynyl-4-(8-fluoro-2-((tetrahydro-1H-pyrrolizin-7a(5H)-yl)methoxy)-4-((1R, 2S, 4R, 5S)-7,9-diazatricyclo[3.3.1.0^2,4]nonan-7-yl)pyrido[4,3-d]pyrimidin-7-yl)naphthalen-2-ol] | 119 | 62.9 | – | – | – | 215 | – | –
